This is an account of results in US5071864A, “Aminoalkyl-substituted 2-aminothiazoles and therapeutic agents containing them” (BASF Aktiengesellschaft, priority 1989, dated 1991).

By Ki is commonly meant a measure of affinity in units of concentration, obtained from inhibition or displacement.

Structures can show the parent of a compound that is named as a salt.

For one assay, the target named is D2 -receptor (Rattus norvegicus, UniProt P61169). Put plainly: Receptor binding test (3H-ADTN, rat striatal membranes).
D2 -receptor, sequence (P61169 whole entry): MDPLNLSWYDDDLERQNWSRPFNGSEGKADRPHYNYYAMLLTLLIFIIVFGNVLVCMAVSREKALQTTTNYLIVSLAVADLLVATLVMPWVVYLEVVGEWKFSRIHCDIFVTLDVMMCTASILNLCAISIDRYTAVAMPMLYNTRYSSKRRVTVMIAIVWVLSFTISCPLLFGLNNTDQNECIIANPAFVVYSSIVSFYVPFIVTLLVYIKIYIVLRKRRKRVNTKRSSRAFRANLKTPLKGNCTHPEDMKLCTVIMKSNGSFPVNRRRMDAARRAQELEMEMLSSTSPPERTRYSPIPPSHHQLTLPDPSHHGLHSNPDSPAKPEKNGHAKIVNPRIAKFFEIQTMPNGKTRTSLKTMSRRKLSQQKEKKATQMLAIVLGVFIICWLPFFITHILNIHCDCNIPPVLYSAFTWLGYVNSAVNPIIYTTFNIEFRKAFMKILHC
Settings: not given
On the set-up: species or system rats (Sprague Dawley).
Turning to `Cc1nc(Nc2ccccc2)sc1CCCN1CC=C(c2ccccc2)CC1` [Example 3, 4-methyl-2-phenylamino-5-[3-(4-phenyl-1,2,3,6-tetrahydropyridyl)-propyl]-thiazole dihydrochloride], affinity was put at a Ki of 4 nM.
On to `COc1ccc(-c2nc(N)sc2CCN2CC=C(c3ccccc3)CC2)cc1` [Example 4, 2-Amino-4-(4-methoxyphenyl)-5-[2-(4-phenyl-1,2,3,6-tetrahydropyridyl)-ethyl]-thiazole], for which the affinity, expressed as Ki, was 16 nM.
The same measure, in the same setting: for `Nc1nc(-c2cccs2)c(CCN2CC=C(c3ccccc3)CC2)s1` [Example 5, 2-Amino-5-[2-(4-phenyl-1,2,3,6-tetrahydropyridyl)-ethyl]-4-thien-2-ylthiazole dihydrochloride] the value was 10 nM.
For the compound `Nc1nc(-c2ccccc2)c(CCN2CC=C(c3ccccc3)CC2)s1` [Example 8, 2-Amino-4-phenyl-5-[2-(4-phenyl-1,2,3,6-tetrahydropyridyl)-ethyl]-thiazole tartrate], the Ki amounted to 10 nM.
Regarding `Cc1nc(N)sc1CCCN1CC=C(c2ccccc2)CC1` [Example 11, 2-Amino-4-methyl-5-[3-(4-phenyl-1,2,3,6-tetrahydropyridyl)-propyl]-thiazoletartrate], affinity was put at a Ki of 10 nM.

Still in this assay, the particulars now being: displacement of 1 nM 3H-ADTN, rat striatum membranes, 0.1 μM SCH 23390, 40 min at 25° C.; read-out: Ki.
“2-Methylamino-4-methyl-5-[3-(4-phenylpiperazin-1-yl)-propyl]-thiazole dihydrochloride [Example 1]”: the Ki worked out at 6 nM.
Same read-out and setting: for `Cc1nc(N)sc1CCCN(C)CCc1ccccc1` [Example 2, 2-Amino-4-methyl-5-[3-(N-methyl-N-phenethylamino)-propyl]-thiazole fumarate] the value was 20 nM; for `Nc1nc(-c2ccccc2)c(CCCN2CCN(c3ccccc3)CC2)s1` [Example 9, 2-Amino-4-phenyl-5-[3-(4-phenylpiperazin-1-yl)-propyl]-thiazole trihydrochloride], 14 nM.
On the same count and under the same terms, next, `CCCN(CCCc1sc(N)nc1C)CCc1ccccc1` [Example 10, 2-Amino-4-methyl-5-[3-(N-phenethyl-N-propylamino)-propyl]-thiazole fumarate]: 10 nM; `Nc1nc(-c2ccccc2)c(CCCN2CCN(c3ncccn3)CC2)s1` [Example 13, 2-Amino-4-phenyl-5-[3-(4-pyrimid-2-ylpiperazin-1-yl)-propyl]-thiazole tartrate]: 10 nM; `Nc1nc(-c2ccccc2)c(CCCN2CCN(c3ccccn3)CC2)s1` [Example 14, 2-Amino-4-phenyl-5-[3-(4-pyrid-2-ylpiperazin-1-yl)-propyl]tartrate]: 15 nM.
For the compound `Nc1nc(-c2ccccc2)c(CCCN2CCN(c3ccccc3Cl)CC2)s1` [Example 18, 2-Amino-5-[3-(4-(2-chlorophenyl)-piperazin-1-yl)-propyl]-4-phenylthiazole tartrate], the Ki was found to be 25 nM.
Still for that read-out and setting: for `Nc1nc(-c2ccccc2)c(CCN2CCN(c3ccccc3[N+](=O)[O-])CC2)s1` [Example 22, 2-Amino-5-[2-(4-(2-nitrophenyl)-piperazin-1-yl)-ethyl]-4-phenylthiazole tartrate] the value was 16 nM; for `CCCN(CCCc1sc(N)nc1-c1ccccc1)CCc1ccccc1` [Example 23, 2-Amino-4-phenyl-5-[3-(N-propyl-N-phenethylamino)-propyl]-thiazole dihydrochloride], 20 nM.
Still for that read-out and setting: next, `CCCN(CCCCc1sc(N)nc1C)CCc1ccccc1` [Example 25, 2-Amino-4-methyl-5-[4-(N-propyl-N-phenethylamino)-butyl]-thiazole dihydrochloride]: 4 nM.
